Laboratory results: US10086108B2, “Hydrogels and use thereof in anastomosis procedures” (The United States of America, as represented by the …, priority 2015, dated 2018)

Experiments:
Type in all cases: physicochemical
[1] = Oscillatory rheology of peptide hydrogels (formation, shear-thin/recovery, UV photodisruption); conditions: for Storage modulus (G′) of formed gel, regime I time sweep: 1% w/v peptide, pH 7.4, 6 rad/s, 0.2% strain, APC1 after 30 minutes; for Onset of gelation after triggering: regime I
Excerpt: Oscillatory rheology was employed to study the rheological behavior of each gel under experimental conditions that mimic its use during the anastomosis procedure. Here, the storage modulus (G′), a measure of the gels' mechanical rigidity, is monitored in the rheometer under environmental conditions that mimic: (1) the initial (sol-gel) formation of the hydrogel in the syringe; (2) shear thinning of the material as it passes through the syringe needle during injection with subsequent hydrogel recovery in the vessel lumen; and (3) the disruption of the gel network (gel-sol) by UV photolysis after suturing. Monitoring gel behavior in a rheometer, although not exactly capturing the gel's response during the actual anastomosis procedure, allows quantitative and reproducible measurement of gel mechanical properties under highly controlled conditions. […] In regime I, the rate of hydrogel formation (sol-gel) is assessed in a time-sweep experiment that monitors the evolution of G′ after peptide folding and assembly is triggered for a 1% w/v solution of peptide. […] After completion of the initial time sweep, 1000% strain is applied to the material for 30 seconds in regime II to mimic syringe delivery of the gel. This application of strain results in an immediate decrease in G′ indicative of shear thinning that results in a viscous gel capable of flow. After the 30 seconds, the applied strain is decreased to 0.2% and the material is allowed to recover. […] Lastly, using an optically clear parallel plate in the rheometer, the recovered hydrogel is subjected to irradiation by UV light (365 nm) for the first 10 minutes of regime III, where the effect of photolysis on the storage modulus is monitored over time. […] Importantly, irradiation by UV rapidly disrupts the gel network affording a viscous material, which should be capable of dissolution when exposed to the shear of blood flow. Independent frequency- and strain-sweep measurements were also performed as shown in FIGS. 14A-14B and FIGS. 15A-15B.
Application of 1000% strain in the first 30 sec. of regime II quickly thins the APC2 gel. However, the resulting viscous material is unable to self-heal effectively and recovers only about 5% of its original mechanical rigidity. Finally, irradiation in regime III disrupts the weakly recovered gel. Although APC2 is initially able to form a very rigid gel, its inability to recover after being shear thinned precludes it use in the anastomosis procedure. […] Here, incorporation of the cage near the strand termini of the hairpin hampers the ability of the network to recover. Based on this rheological assessment, the APC1 gel was chosen for further study.
Oscillatory Rheology. Rheology experiments were performed on an AR-G2 Rheometer (TA Instruments, DE) equipped with a 25 mm stainless steel parallel plate geometry using a 0.5 mm gap height. A 2 wt % peptide solution was prepared by dissolving lyophilized peptide in water and chilling on ice. An equal volume of chilled 100 mM BTP, 300 mM NaCl, pH 7.4 buffer was added and gently mixed, then immediately transferred to the rheometer plate equilibrated at 5° C. In separate experiments, APC1 gels were prepared in syringe, or as a preformed slab, and incubated for 1 hour at 37° C. Gels were then shear-thinned delivered, or transferred as an intact gel slab, to the rheometer plate, respectively. A temperature ramp from 5° C. to the desired temperature (25° C. or 37° C.) over 100 seconds was performed, followed by a 60 minute dynamic time sweep using an angular frequency of 6 rads and application of 0.2% strain to monitor the storage (G′) and loss (G″) modulus of the hydrogel. The resulting hydrogel was further evaluated by performing a frequency sweep from 0.1 to 100 rads and a strain sweep at 6 rads from 0.1% to 1000% strain. Oil was placed around the sample and on the plate to prevent evaporation. […]

[2] = Circular dichroism spectroscopy of peptide folding and assembly; conditions: for Folding state by CD under gelation conditions / Folding state by CD in water: 1% w/v; for Folding state by CD under gelation conditions: pH 7.4, 150 mM NaCl, 25 or 37° C.; for Folding state by CD in water: 5° C.; for Temperature needed to induce folding and assembly: pH 7.4 buffer with NaCl, ellipticity at 216 nm vs temperature
Method: The ability of APC1 and APC2 to fold and associate into β-sheet rich assemblies was monitored using circular dichroism (CD) spectroscopy. In water at 5° C., the CD spectra of 1% w/v solutions of APC1 and APC2 indicate that the peptides are unfolded under these conditions (FIG. 4A). […] The NaCl screens the lysine point charges and increasing the temperature drives the hydrophobic effect, both of which favor folding and assembly. The exact temperatures needed to induce folding and assembly of each peptide were determined by monitoring the mean ellipticity at 216 nm as a function of temperature as shown in FIG. 13. In all the CD experiments, self-supporting hydrogels of both peptides (pH 7.4, 150 mM NaCl) form directly in the cuvette after folding is triggered. The same procedure can be used to form the gels directly in a syringe. […] Also evident in the spectra are absorptions due to the indoline cage, which occur in the near UV-CD (240-380 nm). […] However, when the peptides fold and assemble, the indoline ring is placed into a chiral environment, such as that provided by the fibril's hydrophobic interior. […] Importantly, it also supports the assertion that if the glutamate's negative point-charge were to be unmasked when the peptides are in the folded and assembled fibrillar state, that this event should be disruptive.
Circular Dichroism (CD). CD spectra of peptide hydrogels were collected on an AVIV 410 spectropolarimeter (AVIV Biomedical Inc., NJ). For wavelength spectra of APC1 and APC2 in water, a 1 wt % solution of peptide was prepared by dissolving lyophilized peptide in water at 5° C. The peptide solution was transferred to a 0.1 mm path length cylindrical cell and placed in the spectrometer sample holder equilibrated at 5° C. For temperature-dependent folding of 1 wt % hydrogels, a 2 wt % peptide solution was first prepared by dissolving lyophilized peptide in water and chilling on ice. Then, an equal volume of chilled 100 mM BTP, 300 mM NaCl, pH 7.4 buffer was added, gently mixed, and quickly transferred to a 0.1 mm path length cylindrical cell and placed in the spectrometer sample holder equilibrated at 5° C. The CD spectra were collected from 200-260 nm or 200-400 nm as a function of temperature at 5 degree increments from 5-80° C. with 10 min equilibration at each temperature. For UV photolysis of 1% w/v hydrogels, the solution was prepared in a manner identical to the folding studies and placed in the spectrometer at 25° C. or 37° C. for 30 minutes. The hydrogel within the cylindrical cell was irradiated for the specified time interval, followed by recording the mean residue ellipticity at 216 nm. For APC1, irradiation and spectra were obtained at 10 second intervals for the first 60 seconds, then at 1 minute intervals for a total of 5 minutes. For APC2, irradiation and spectra were obtained at 1 minute intervals for a total of 15 minutes. At the final time point, a wavelength spectrum from 200-400 nm of each peptide was obtained. Peptide concentration was determined by UV spectroscopy using ε220nm=16448 M^−1cm^−1 for cAPC1 and cAPC2 and ε220nm=31144 M^−1cm^−1 for APC1 and APC2. The mean residue ellipticity [θ] was calculated from [θ]=(θobs/10 lc)/r, where θobs is the measured ellipticity in degrees, l is the path length in centimeters, c is the concentration in molar, and r is the number of residues in the sequence. Each CD spectra shown is representative of three individual experiments, where each data point represents the average of 30 measurements, with a variance in ellipticity of 0.2 millidegrees at each wavelength.

[3] = UV photolysis of the indoline cage followed by absorbance at 248 nm; conditions: absorbance at 248 nm during irradiation
Excerpt: FIGS. 6A and 6B test that assertion by following the fate of both the 4-methoxy-7-nitroindoline (MNI) group as well as the caged peptide during photolysis. In FIG. 6A, the absorbance of APC1 at 248 nm is followed as a function of time during irradiation. Absorbance at this wavelength is mainly due to the intact indoline cage. […] In FIG. 6B, photolysis of the caged peptide is followed by RP-HPLC. […] Mass spectroscopy was used to confirm the identity of both species.

Substance | Storage modulus (G′) of formed gel, regime I time sweep [1] | Onset of gelation after triggering ([1]; 1% w/v) | Folding state by CD under gelation conditions [2] | Folding state by CD in water [2] | Temperature needed to induce folding and assembly [2] | Storage modulus (G′) after UV irradiation, regime III ([1]; 365 nm, 10 minutes, recovered 1% w/v gel) | Storage modulus (G′) recovered after shear thinning ([1]; 1000% strain for 30 seconds, then 0.2% strain, 1% w/v) | Irradiation time to almost complete photolysis of the indoline cage [3]
VKVKGKVKV^DPPTKVEZKVKV [APC2] | 20,000 Pa | significant lag phase | β-sheet secondary structure | unfolded | 37 °C | – | – | –
Ac-VKVKVKGKV^DPPTKZEVKVKV-NH2 [APC1] | ~2,500 Pa | within the first few minutes | β-sheet secondary structure | unfolded | 25 °C | ~180 Pa | 1900 Pa | 90 s
